Reference: patent EP4389746A2, “P2X3 RECEPTOR ANTAGONISTS” (Recordati Industria Chimica E Farmaceutica SPA, priority 2022, dated 2024)

Assays:
human P2X2/3 receptor = target: T1, human P2X2/3 receptor (Homo sapiens, UniProt P56373+Q9UBL9); test: Calcium fluorescence measurement: human P2X2/3 receptor activity inhibition (CHO-K1 cells, Fluo-8 NoWash, […]); type: cell-based
T1 construct: expressed in transfected cells; host or cells: CHO-K1
T1 sequence (P56373 1-397): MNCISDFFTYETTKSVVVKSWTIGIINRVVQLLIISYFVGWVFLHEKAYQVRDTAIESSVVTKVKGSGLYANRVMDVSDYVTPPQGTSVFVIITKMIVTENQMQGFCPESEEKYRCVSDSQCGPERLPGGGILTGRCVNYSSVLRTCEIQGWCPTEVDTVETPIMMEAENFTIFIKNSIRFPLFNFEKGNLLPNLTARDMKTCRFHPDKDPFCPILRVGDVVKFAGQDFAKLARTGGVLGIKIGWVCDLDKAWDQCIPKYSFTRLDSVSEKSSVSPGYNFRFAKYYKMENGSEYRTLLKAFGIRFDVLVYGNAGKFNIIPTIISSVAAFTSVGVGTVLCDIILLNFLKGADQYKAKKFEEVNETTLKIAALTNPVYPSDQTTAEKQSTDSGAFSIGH
T1 sequence (Q9UBL9 1-471): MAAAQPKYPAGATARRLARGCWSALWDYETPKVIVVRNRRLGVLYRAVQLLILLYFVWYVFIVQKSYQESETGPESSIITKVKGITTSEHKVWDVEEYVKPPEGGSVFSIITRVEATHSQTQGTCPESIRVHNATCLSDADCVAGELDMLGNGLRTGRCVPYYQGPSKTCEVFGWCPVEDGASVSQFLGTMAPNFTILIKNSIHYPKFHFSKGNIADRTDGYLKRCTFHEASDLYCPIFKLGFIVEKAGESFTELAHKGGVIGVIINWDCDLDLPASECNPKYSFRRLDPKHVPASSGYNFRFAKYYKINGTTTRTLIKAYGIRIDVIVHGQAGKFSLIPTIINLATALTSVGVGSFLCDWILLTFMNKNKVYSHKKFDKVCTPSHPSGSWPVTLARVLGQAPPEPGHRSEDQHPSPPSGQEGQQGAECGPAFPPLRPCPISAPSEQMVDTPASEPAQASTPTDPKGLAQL
Description: Determination of human P2X2/3 receptor activity inhibition
The assay for the human P2RX2/X3 has been evaluated by the screening instrumentation using the […] as reader and the FLUO8-NoWash dye as fluorescent readout for calcium detection.
CHO-K1 cells recombinantly expressing the human P2RX2/X3 channel are maintained in DMEM F-12 (1:1) mixture (LONZA cat. n°: BE04-687F/U1) supplemented with 5 mL of 100 mM Sodium Pyruvate (LONZA cat. n° BE13-115E), 25 mL of 7.5% Sodium Bicarbonate (LONZA cat. n° BE17-613E), 6.5 mL of 1M Hepes (LONZA cat. n° BE17-737E), 5 mL of 100X Penicillin/Streptomycin mixture (LONZA cat. n° DE17-602E) and 50 mL of Fetal Bovine Serum (Sigma cat. n° F7524), 5 µg/mL Puromycin dihydrochloride (Sigma cat. n° P9620) and 1 mg/ml G418 disulfate salt (Sigma cat. n° G8168).
Cells were seeded into black-walled clear bottom 384 Multiwell plates at a density of 10.000 cells/well in complete medium. After 24 h the culture medium was replaced with 20 µL/well of Fluo-8 NoWash calcium sensitive dye (AAT Bioquest cat. n° 36316) diluted in Tyrode's buffer (Standard Tyrode's buffer: in house solution, 130 mM NaCl, 5 mM KCl, 2 mM CaCl2, 5 mM NaHCO3, 1 mM MgCl2, 20 mM HEPES, pH 7.4).
The plates were incubated for 1 hours at 37°C and injected with 10 µL/well of test compounds at 3X concentration in Tyrode's buffer with the […]. After 5 minutes a second injection of 15 µL/well of 10µM α,β-Met-ATP in Tyrode's buffer (α,β-Met-ATP: from Tocris cat. n° 3209) was performed and the signal of the emitted fluorescence was recorded by […] (Molecular Devices).
The selectivity is expressed as the ratio of IC50 of P2X2/3/ P2X3 receptors. Table 8: Human P2X3 and h-P2X2/3 receptor antagonist activity for selected compounds of the invention.

Hartley Guinea pigs = test: Cough model: inhibition of citric acid induced cough in guinea pig; type: in vivo; conditions: intraperitoneally 30 min before nebulization of citric acid 0.4 M, compared with vehicle (Fig. 3)
Description: C57BL/6J mice, Hartley Guinea pigs and Sprague-Dawley Rats from Charles River Italy were used in the experiments. Animals were housed with free access to food and water and maintained on a forced 12 hr light-dark cycle at 22-24°C for at least one week before the experiments were carried out. The animals were handled according to internationally accepted principles for care of laboratory animals (Directive 2010/63/EU of the European Parliament and of the Council of 22 September 2010).
"Cough model" - Inhibition of citric acid induced cough in guinea pig
Conscious guinea pigs were placed in the transparent chamber of the whole-body plethysmograph (EMKA) and allowed to move freely. The number of coughs was registered by the IOX2 software for 10 minutes during and 10 minutes after the nebulization of citric acid 0.4 M. Example 22 was injected intraperitoneally 30 min before the nebulization of citric acid. (see Fig. 3) In cough model the results are presented as mean ± SEM of the values. Statistical analysis was performed using one-way ANOVA and Dunnet's test for multiple comparisons.

- IC50 (human P2X2/3 receptor; CHO-K1 cells expressing human P2RX2/X3 channel, 10µM α,β-Met-ATP, read-out: h-P2X2/3 IC50): 18.8 µM
- Selectivity (human P2X2/3 receptor; ratio of IC50 of P2X2/3/ P2X3 receptors): 510
Structure (SMILES): CC(C)C1C(=O)N=C2c3ncc(N4CCOCC4)cc3N(Cc3ccc(Cl)cc3)C(=O)N21 (racemic) [Example 22, 6-[(4-Chlorophenyl)methyl]-8-(morpholin-4-yl)-3-(propan-2-yl)imidazo[1,2-c]pyrido[2,3-e]pyrimidine-2,5(3H,6H)-dione]
- number of coughs (Hartley Guinea pigs): significantly reduced the number of coughs both during and after the nebulization of citric acid
